In patent US20240368158A1, “KINASE MODULATORS, COMPOSITIONS COMPRISING THE KINASE MODULATOR, AND METHODS OF USING THE SAME” (BIOFRONT LTD, priority 2021, published 2024) one finds IC50 data, which are given here for four molecules.

The test system of test [1] is HPK1 p-SLP-76 in Jurkat cells. Briefly: HPK1 p-SLP-76 inhibition assay in Jurkat cells (HTRF). It counts as cell-based. The settings on record: Homo sapiens, 4 h compound, anti-CD3 stimulation 20 min. For orientation: TR-FRET usually uses a lanthanide donor and a delayed reading to cut background.
A further test concerns the target T1, HPK1 (Homo sapiens, UniProt Q92918).
T1 construct: purchased Signal Chem M23-11G-10
T1 sequence (Q92918 1-346 limits assumed): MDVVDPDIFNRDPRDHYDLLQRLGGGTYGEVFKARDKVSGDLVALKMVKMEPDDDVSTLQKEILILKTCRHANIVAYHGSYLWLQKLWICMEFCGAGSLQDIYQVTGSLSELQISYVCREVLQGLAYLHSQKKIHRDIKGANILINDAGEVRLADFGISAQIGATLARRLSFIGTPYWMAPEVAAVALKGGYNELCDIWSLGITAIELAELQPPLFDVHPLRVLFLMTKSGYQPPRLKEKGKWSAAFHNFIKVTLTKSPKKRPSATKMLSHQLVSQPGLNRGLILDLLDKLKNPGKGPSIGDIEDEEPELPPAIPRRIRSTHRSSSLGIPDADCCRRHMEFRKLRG
Put plainly: HPK1 enzyme inhibition assay (ADP-Glo). The following applies: MBP substrate, ATP. The test is classed as biochemical. For orientation: ADP-Glo first removes unused ATP, then detects ADP through luciferase.

A further test deals with T2, FLT3-ITD (Homo sapiens, UniProt P36888).
T2 construct: The FLT3-ITD protein was purchased from Invitrogen (PV6190)
T2 sequence (P36888 1-993): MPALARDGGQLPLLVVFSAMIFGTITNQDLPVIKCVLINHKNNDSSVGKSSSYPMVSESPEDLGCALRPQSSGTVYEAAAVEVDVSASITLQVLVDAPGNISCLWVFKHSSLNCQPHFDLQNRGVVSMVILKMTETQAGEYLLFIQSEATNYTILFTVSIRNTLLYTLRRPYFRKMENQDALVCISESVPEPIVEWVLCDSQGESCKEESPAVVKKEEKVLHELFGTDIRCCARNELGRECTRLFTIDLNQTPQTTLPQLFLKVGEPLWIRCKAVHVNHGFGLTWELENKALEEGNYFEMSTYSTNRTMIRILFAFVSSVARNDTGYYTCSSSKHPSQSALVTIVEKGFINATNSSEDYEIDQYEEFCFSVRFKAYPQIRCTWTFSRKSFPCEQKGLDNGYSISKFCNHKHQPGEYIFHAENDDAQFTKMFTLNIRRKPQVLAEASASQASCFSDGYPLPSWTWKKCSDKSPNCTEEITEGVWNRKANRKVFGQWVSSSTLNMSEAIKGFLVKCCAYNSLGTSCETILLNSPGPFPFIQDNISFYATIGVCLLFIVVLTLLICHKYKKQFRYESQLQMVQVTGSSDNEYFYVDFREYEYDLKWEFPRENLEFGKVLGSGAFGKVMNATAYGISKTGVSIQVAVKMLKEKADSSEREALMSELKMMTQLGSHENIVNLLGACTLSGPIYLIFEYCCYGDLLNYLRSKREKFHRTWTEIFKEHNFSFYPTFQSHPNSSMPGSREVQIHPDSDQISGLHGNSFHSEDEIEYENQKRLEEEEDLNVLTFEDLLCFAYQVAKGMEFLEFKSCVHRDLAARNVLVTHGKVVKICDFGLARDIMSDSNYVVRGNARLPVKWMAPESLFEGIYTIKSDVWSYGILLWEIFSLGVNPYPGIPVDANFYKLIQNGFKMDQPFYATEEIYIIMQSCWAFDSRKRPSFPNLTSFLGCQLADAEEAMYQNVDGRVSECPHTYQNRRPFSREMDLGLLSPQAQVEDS
Briefly: FLT3-ITD enzyme inhibition assay (HTRF KinEASE-TK). The settings on record: FLT3-ITD protein, ATP 15 μM. The test is classed as biochemical. As to the method: The compound was dissolved in 100% DMSO at the concentration of 10 mM. The FLT3-ITD protein was purchased from Invitrogen (PV6190). 5 μL per well of 2×FLT3-ITD protein was added to assay plate containing the test compound, centrifuged at 1000 rpm for 1 minute, and then incubated at 25° C. for 15 minutes. HTRF KinEASE-TK kit was purchased from Cisbio (62TK0PEC) and ATP was purchased from Thermo Fisher Scientific (R0441). TK-Substrate-biotin and ATP were added 5 μL per well mixture of 2×TK-Substrate-biotin (final conc. is […]) and ATP (final conc. is 15 μM), centrifuged at 1000 rpm for 1 minute, then incubated at 25° C. for 60 minutes. Then added 10 μL of detection buffer (0.25×TK-antibody Eu3+-cryptate, 0.125 μM streptavidine-XL 665) to the assay plate and centrifuged at 1000 rpm for 1 minute then incubated at 25° C. for 60 minutes and 4° C. incubated for overnight, the product was determined. Based on the results, the IC50 value of the compound was calculated.

Turning to `CCc1c[nH]c2ncc(-c3cccc(N4CCN(C(=O)[C@@H](N)Cc5ccccc5)CC4=O)c3)c(Cl)c12` [Example 43, 4-(L-phenylalanyl)-1-(3-(4-chloro-3-ethyl-1H-pyrrolo[2,3-b]pyridin-5-yl)phenyl)piperazin-2-one], the figures for the half-inhibitory concentration (IC50) (in test [1]; at HPK1; at FLT3-ITD) were 3000 to 10000 nM, at most 10 nM and 10 to 100 nM, respectively.
For `O=C1CNCCN1c1cccc(-c2cnc3[nH]cc(C#Cc4ccccn4)c3c2Cl)c1` [Example 7, 1-(3-(4-chloro-3-(pyridin-2-ylethynyl)-1H-pyrrolo[2,3-b]pyridin-5-yl)phenyl) piperazin-2-one] the same measures were 3000 to 10000 nM, 10 to 100 nM and 10 to 100 nM.
For `CN(C)CCCS(=O)(=O)N1CCN(c2cccc(-c3cnc4[nH]cc(CC(F)F)c4c3Cl)c2)C(=O)C1` [Example 60, 1-(3-(4-chloro-3-(2,2-difluoroethyl)-1H-pyrrolo[2,3-b]pyridin-5-yl)phenyl)-4-((3-(dimethylamino)propyl)sulfonyl)piperazin-2-one] the same measures were 300 to 3000 nM, at most 10 nM and at most 10 nM.
On to `CCc1c[nH]c2ncc(-c3nc(N4CCNCC4=O)sc3C)c(Cl)c12` [Example 20, 1-(4-(4-chloro-3-ethyl-1H-pyrrolo[2,3-b]pyridin-5-yl)-5-methylthiazol-2-yl)piperazin-2-one], for which the concentration for half-maximal inhibition (IC50) in test [1] was over 10000 nM; against HPK1, 100 to 1000 nM; against FLT3-ITD, 10 to 100 nM.

As usually defined, the IC50 is the concentration needed to halve the response being measured. The low end stands for inhibition by little substance, the high end for a need for much substance.
